Where “and” joins values, the source holds several entries; their conditions need not be identical. Equal entries are not always repeated. Values belong to the compound of their own block, whether it stands above or below them. Residues, ends and D or L forms follow the SMILES beside them.
Assays:
CT26 colon carcinoma [1] = assay: CT26 model, survival in combination with cyclophosphamide; format: in vivo, mouse; design: key to Survival data: 0: Censored; Death or tumor volume more than 10% of body weight; conditions: Vehicle+CTX, individual animals
Description: (§1) Studies in syngeneic models including B16 melanoma metastasis model and CT26 colon carcinoma subcutaneous model were performed as described. For the Docetaxel combination experiment in CT26 model, indicated dosage of docetaxel (Source: Docetere® injection by Dr Reddy’s Laboratories) was dosed intraperitoneally to animals. For the CA-170 combination groups, CA-170 (10 mg/kg/day, oral) was dosed ~10 min after docetaxel. Animal grouping, treatment efficacy assessment and %TGI calculations were performed as mentioned above. For the CT26 experiment with cyclophosphamide, 100 mg/kg of cyclophosphamide was dosed once on day 5 intraperitoneally after cell implantation (first day of dosing for all other groups). Anti-PD1 antibody (Clone J43 from BioXcel) was dosed intraperitoneally at 100 µg/animal once every week.

PD-L1 = biological target: T1, PD-L1 (Mus musculus, UniProt Q9EP73); assay: Rescue of PD-L1 mediated inhibition of proliferation, mouse splenocytes; format: cell-based; conditions: splenocyte-based assay
T1 construct: purchased R&D Systems 1019-B7-100
T1 sequence (Q9EP73 with tags, fused parts or gaps limits assumed): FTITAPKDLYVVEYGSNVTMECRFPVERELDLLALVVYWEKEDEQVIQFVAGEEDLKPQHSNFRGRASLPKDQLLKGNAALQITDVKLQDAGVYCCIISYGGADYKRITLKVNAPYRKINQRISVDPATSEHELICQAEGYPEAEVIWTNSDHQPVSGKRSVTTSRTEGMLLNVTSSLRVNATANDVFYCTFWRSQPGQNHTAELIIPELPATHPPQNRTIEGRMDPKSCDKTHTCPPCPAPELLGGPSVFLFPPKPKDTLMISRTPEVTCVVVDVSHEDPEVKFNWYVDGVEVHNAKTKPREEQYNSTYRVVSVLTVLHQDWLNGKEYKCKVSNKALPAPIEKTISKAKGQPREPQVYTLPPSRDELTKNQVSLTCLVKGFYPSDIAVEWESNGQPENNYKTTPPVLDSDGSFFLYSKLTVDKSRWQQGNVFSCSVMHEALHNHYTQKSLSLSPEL
Description: The ability of peptides, peptidomimetics, and small molecules were analyzed for their ability to rescue T-cell proliferation or IFN-γ release from the inhibitory activity of PD-L1 or PD-L2 in a splenocyte/PBMC-based functional assay as per the protocols reported in publication. […] For all in vitro assays, test agent stock was prepared in water and diluted further in the assay media to achieve test concentrations. Each experimental condition was carried out in triplicates. Percent rescue for a given test compound concentration was calculated by normalizing individual percent test agent proliferation or IFN-γ release values to percent anti-CD3 and anti-CD28 antibodies stimulated proliferation or IFN-γ release. EC50 values were derived by plotting transformed data into non-linear fit in sigmoidal dose–response curve using GraphPad Prism software (Version 7).

Pharmacokinetics in mice = format: in vivo, mouse; conditions: mouse, in vivo
Description: Animals in Group 1 were administered with 5% w/v dextrose in water and Group 2 were administered with corresponding formulation listed in the Supplementary Table 6 through oral routes. Blood samples (approximately 40 μl) were collected under light isoflurane anesthesia from submandibular at predose, 0.08 (IV), 0.25, 0.5, 1, 2, 4, 8, and 24 h using sparse sampling technique. Plasma samples were separated by centrifugation of whole blood and stored below −70 °C until bioanalysis. All samples were processed for analysis by protein precipitation and analyzed with fit-for-purpose LC–MS/MS method.

CT26 colon carcinoma [2] = assay: CT26 model, combination with docetaxel; format: in vivo, mouse; conditions: for TGI: CT26 in Balb/c mice, 12 days; for Individual tumor volumes: individual animals
Description: as §1

SMILES: O=P1(N(CCCl)CCCl)NCCCO1 (stereo not shown) [CTX]
Survival data (CT26 colon carcinoma [1]; day 1 of treatment): 0
Survival data (CT26 colon carcinoma [1]; day 3 of treatment): 0
Survival data (CT26 colon carcinoma [1]; day 6 of treatment): 0
Survival data (CT26 colon carcinoma [1]; day 8 of treatment): 0
Survival data (CT26 colon carcinoma [1]; day 10 of treatment): 0
Survival data (CT26 colon carcinoma [1]; day 12 of treatment): 1 and 0
Survival data (CT26 colon carcinoma [1]; day 14 of treatment): 1 and 0
Survival data (CT26 colon carcinoma [1]; day 15 of treatment): 0

EC50 (PD-L1): 6 nM
SMILES: C[C@@H](O)[C@H](NC(=O)[C@H](CC(N)=O)NC(=O)[C@@H](N)CO)C(=O)O [PM-116] (H-Ser-Asn-Thr-OH; N-terminus and C-terminus assumed)

AUC (Pharmacokinetics in mice; iv, 1 mg/kg): 2180 ng·h/mL
clearance (Pharmacokinetics in mice; iv, 1 mg/kg): 22.9 mL/min/kg
bioavailability (Pharmacokinetics in mice; po): 6.8%
oral bioavailability (in words) (Pharmacokinetics in mice; po): not orally bioavailable
AUC (Pharmacokinetics in mice; po, 30 mg/kg): 495 ng·h/mL
Cmax (Pharmacokinetics in mice; po, 30 mg/kg): 554 ng/mL
EC50 (PD-L1): 55 nM
SMILES: C[C@@H](O)[C@@H]1NC(=O)[C@H](CC(N)=O)NC(=O)[C@H](CO)NC(=O)[C@H](Cc2ccccc2)NC(=O)[C@H](CO)NC(=O)[C@H](CCC(=O)O)NC(=O)[C@H](CO)NC1=O [PM-823] (HELM PEPTIDE1{E.S.F.S.N.T.S}$PEPTIDE1,PEPTIDE1,1:R1-7:R2$$$V2.0)

SMILES: CC(=O)O[C@@]12CO[C@@H]1C[C@H](O)[C@@]1(C)C(=O)[C@H](O)C3=C(C)[C@@H](OC(=O)[C@H](O)[C@@H](NC(=O)OC(C)(C)C)c4ccccc4)C[C@@](O)([C@@H](OC(=O)c4ccccc4)[C@H]21)C3(C)C [docetaxel]
TGI (CT26 colon carcinoma [2]; single agent docetaxel 1 mg/kg): 44%
TGI (CT26 colon carcinoma [2]; single agent docetaxel 10 mg/kg): 43%
Individual tumor volumes (CT26 colon carcinoma [2]; Docetaxel 1mg/kg, day 1 of treatment): 22.15 mm3 and 31.55 mm3 and 34.9 mm3 and 45.07 mm3 and 50.49 mm3 and 58.82 mm3 and 62.62 mm3 and 76.97 mm3 and 88.69 mm3
Individual tumor volumes (CT26 colon carcinoma [2]; Docetaxel 1mg/kg, day 4 of treatment): 46.4 mm3 and 28.72 mm3 and 78.5 mm3 and 62.65 mm3 and 97.03 mm3 and 124.03 mm3 and 118.17 mm3 and 67.74 mm3 and 149.61 mm3
Individual tumor volumes (CT26 colon carcinoma [2]; Docetaxel 1mg/kg, day 6 of treatment): 132.42 mm3 and 19.09 mm3 and 90.17 mm3 and 95.74 mm3 and 164.49 mm3 and 224.32 mm3 and 158.95 mm3 and 86.49 mm3 and 198.71 mm3
Individual tumor volumes (CT26 colon carcinoma [2]; Docetaxel 1mg/kg, day 8 of treatment): 186.57 mm3 and 10.93 mm3 and 133.19 mm3 and 151.25 mm3 and 260.04 mm3 and 385.2 mm3 and 276.47 mm3 and 199.1 mm3 and 392.38 mm3
Individual tumor volumes (CT26 colon carcinoma [2]; Docetaxel 1mg/kg, day 11 of treatment): 263.17 mm3 and 22.61 mm3 and 143.19 mm3 and 316.97 mm3 and 451.22 mm3 and 764.37 mm3 and 562.88 mm3 and 301.78 mm3 and 690.4 mm3
Individual tumor volumes (CT26 colon carcinoma [2]; Docetaxel 10mg/kg, day 1 of treatment): 22.87 mm3 and 29.49 mm3 and 35.8 mm3 and 43.1 mm3 and 51.4 mm3 and 57.21 mm3 and 63.02 mm3 and 74.99 mm3 and 92.42 mm3
Individual tumor volumes (CT26 colon carcinoma [2]; Docetaxel 10mg/kg, day 4 of treatment): 54.41 mm3 and 32.56 mm3 and 76.21 mm3 and 71.86 mm3 and 73.1 mm3 and 87.77 mm3 and 117.98 mm3 and 93.45 mm3 and 48.5 mm3
Individual tumor volumes (CT26 colon carcinoma [2]; Docetaxel 10mg/kg, day 6 of treatment): 109.48 mm3 and 42.16 mm3 and 129.37 mm3 and 103.08 mm3 and 111.56 mm3 and 155.23 mm3 and 165.2 mm3 and 163.17 mm3 and 79.31 mm3
Individual tumor volumes (CT26 colon carcinoma [2]; Docetaxel 10mg/kg, day 8 of treatment): 163.72 mm3 and 98.83 mm3 and 244.12 mm3 and 203.26 mm3 and 199.06 mm3 and 316.02 mm3 and 316.69 mm3 and 217.54 mm3 and 105.3 mm3
Individual tumor volumes (CT26 colon carcinoma [2]; Docetaxel 10mg/kg, day 11 of treatment): 322.31 mm3 and 251.42 mm3 and 447.21 mm3 and 378.85 mm3 and 332.62 mm3 and 662.99 mm3 and 641.53 mm3 and 377.51 mm3 and 200.96 mm3
